Legend:
GLP-1 release = test: In vivo effects of ligands for GT01 on GLP-1 release (plasma GLP-1 enzyme immunoassay); set-up: species or system mouse; details: 100 nmol/g directly into the stomach of 24-hour fasted C57/B6 mice; blood 0.5 or 2 hours after administration (FIG. 11)
Description: A 100 nmol/g of fatty acid (α-linolenic acid, stearic acid, or octanoic acid) was included in polyethyleneglycol as a vehicle, and given, through a tube, directly into the stomach of 8-week old male C57/B6 mice (Sankyo Lab) after 24-hour fasting. The mice were each anaesthetized with diethyl ether 0.5 or 2 hours after the administration of the fatty acid, followed by sampling the blood from the portal vein using a heparinized syringe. The heparizized blood was centrifuged at 4° C. and 1,200×g for 20 minutes to prepare a plasma which was then subjected to enzyme immunoassay for GLP-1 (Yanaihara Institute Inc.). All experiments were performed according to an institute-approved guideline.

[1] = tested on: human intestinal cell line NCI-H716; details: literature report, background art; cited from earlier work
insulin release = details: 100 nmol/g directly into the stomach of 24-hour fasted C57/B6 mice; 2 hours after administration (FIG. 13)
Description: All experiments were performed according to an institute-approved guideline.

GT01 = GT01 (Mus musculus, UniProt Q7TMA4); details: STC-1 cells; peak eliminated by RNAi specific for GT01 (FIG. 6)
Chain of GT01 (Q7TMA4 whole entry): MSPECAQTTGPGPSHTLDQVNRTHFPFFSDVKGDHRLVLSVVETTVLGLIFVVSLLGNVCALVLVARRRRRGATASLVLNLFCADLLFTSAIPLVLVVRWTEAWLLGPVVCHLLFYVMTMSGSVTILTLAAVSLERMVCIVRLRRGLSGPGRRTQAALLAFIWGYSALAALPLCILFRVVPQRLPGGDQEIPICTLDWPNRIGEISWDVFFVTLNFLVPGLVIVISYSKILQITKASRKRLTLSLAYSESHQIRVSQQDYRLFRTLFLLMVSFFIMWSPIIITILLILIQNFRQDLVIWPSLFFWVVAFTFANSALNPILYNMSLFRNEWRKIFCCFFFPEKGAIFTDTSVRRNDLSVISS
Description: Cells (STC-1 cells) are cultured in a 35-mm culture dish with a cover glass in the bottom. After washing with a Ca-tyrode solution, a Ca-tyrode solution containing 2 μM fura-AM is added thereto, which is then placed at room temperature for 20 minutes. After washing twice with a Ca-tyrode solution, 1 mL of Ca-tyrode solution is added thereto, and images are captured at room temperature at 15-second intervals using ARGUS200 (340/380 nm measurement) with a 40× objective lens. For each of the captured images, the ratio is calculated. Stimulation (using bombesin) serving as a control for the ligand is carried out 10 and 20 minutes later.
When an RNAi vector was transfected, fluorescence due to GFP simultaneously transfected is measured; a Ca^2+ response over time for cells having GFP fluorescence and showing Ca^2+ elevation with the control vector was quantitatively determined, and is indicated (FIG. 6).
The gene transfection into STC-1 cells was carried out using Lipofectamine Plus, and intracellular Ca^2+ concentration was then measured under a microscope (lower graph in FIG. 6).

Structure (SMILES): CCCCCCCCCCCCCCCCCC(=O)O [stearic acid]
- secretion of GLP-1 (plasma from portal vein) (GLP-1 release): induced

Structure (SMILES): CCCCCCCCCCCCCCCC(=O)O [palmitic acid]
- secretion of GLP-1 from NCI-H716 cells [1]: promotes the secretion of GLP-1

Structure (SMILES): CC/C=C\C/C=C\C/C=C\CCCCCCCC(=O)O [α-linolenic acid]
- secretion of GLP-1 (plasma from portal vein) (GLP-1 release): induced
- insulin concentration in plasma, portal vein versus inferior vena cava (insulin release): higher concentration of insulin was detected in the plasma sampled from the portal vein
- elevation of intracellular calcium concentration (GT01): elevates intracellular calcium concentration via GT01

Structure (SMILES): CCCCCCCC/C=C\CCCCCCCC(=O)O [oleic acid]
- secretion of GLP-1 from NCI-H716 cells [1]: promotes the secretion of GLP-1

— US20080004227A1, “Pharmaceutical Composition for Lowering Blood Sugar Level” (PHARMAFRONTIER CO., LTD, priority 2004, published 2008)
